The test system of the assay is SU-DHL-4 cell line. As to the kind of experiment: SU-DHL-4 cell proliferation assay (Cell Titer-Glo viability). In kind it is cell-based. The conditions noted are these: Homo sapiens; cell viability IC50 activity level, DLBCL cell line SU-DHL-4, 120 hours post-treatment; read-out: SU-DHL-4 Act. In a few lines: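 SU-DHL-4 cells (500/well, RPMI-1640 + 10% FBS) exposed to 20-point compound dilutions (0.5 nM–10 μM, 0.1% DMSO) for 120 h at 37°C, 5% CO2. Viability measured by Cell Titer-Glo luminescence at t0 and at 120 h. IC50 is the concentration giving 50% of DMSO control, from a four-parameter logistic fit.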
(In general: In ATP-based viability assays light output follows the ATP content of the culture.)
On to `NC(=O)c1ccc(N2CCN(Cc3ccc(CNc4cccc5c4C(=O)N(C4CCC(=O)NC4=O)C5=O)cc3)CC2)cc1` (stereo not shown) [Cpd 57, 4-(4-(4-((2-(2,6-dioxopiperidin-3-yl)-1,3-dioxoisoindolin-4-ylamino)methyl)benzyl)piperazin-1-yl)benzamide], for which the IC50 was below 200 nM.

On to `CC(C)C1CCN(Cc2ccc(CNc3cccc4c3C(=O)N(C3CCC(=O)NC3=O)C4=O)c(F)c2)CC1` (stereo not shown) [Cpd 103, 2-(2,6-dioxopiperidin-3-yl)-4-(2-fluoro-4-((4-isopropylpiperidin-1-yl)methyl)benzylamino)isoindoline-1,3-dione], for which the IC50 is below 200 nM.

Take `Cc1cncc(N2CCN(Cc3ccc(CNc4cccc5c4C(=O)N(C4CCC(=O)NC4=O)C5=O)cc3)CC2)n1` (stereo not shown) [Cpd 186, 2-(2,6-dioxopiperidin-3-yl)-4-(4-((4-(6-methylpyrazin-2-yl)piperazin-1-yl)methyl)benzylamino)isoindoline-1,3-dione]: the IC50 was 751 to 1000 nM.

Turning to `O=C1CCC(N2C(=O)c3cccc(NCc4ccc(CN5CC6CC(c7ccc(F)cc7)CC6C5)cc4)c3C2=O)C(=O)N1` [Cpd 64, 2-(2,6-dioxopiperidin-3-yl)-4-(4-(((3aR,5r,6aS)-5-(4-fluorophenyl)hexahydrocyclopenta [c]pyrrol-2-(1H)-yl)methyl)benzylamino)isoindoline-1,3-dione], the IC50 fell in the range of 200 to 500 nM.

`O=C1CCC(N2C(=O)c3cccc(NCc4ccc(CN5CC6(CCCCC6)C5)cc4)c3C2=O)C(=O)N1` (stereo not shown) [Cpd 72, 4-(4-(2-azaspiro[3.5]nonan-2-ylmethyl)benzylamino)-2-(2,6-dioxopiperidin-3-yl)isoindoline-1,3-dione]: the IC50 is 200 to 500 nM.

`O=C1CCC(N2C(=O)c3cccc(NCc4ccc(CN5CC6(C5)CC(F)(F)C6)cc4)c3C2=O)C(=O)N1` (stereo not shown) [Cpd 116, 4-(4-((6,6-difluoro-2-azaspiro[3.3]heptan-2-yl)methyl)benzylamino)-2-(2,6-dioxopiperidin-3-yl)isoindoline-1,3-dione]: the IC50 lay in the range of 751 to 1000 nM.

In the case of `CC1(C)CN(c2ccc(C#N)cn2)CCN1Cc1ccc(CNc2cccc3c2C(=O)N(C2CCC(=O)NC2=O)C3=O)cc1` (stereo not shown) [Cpd 84, 6-(4-(4-((2-(2,6-dioxopiperidin-3-yl)-1,3-dioxoisoindolin-4-ylamino)methyl)benzyl)-3,3-dimethylpiperazin-1-yl)nicotinonitrile], the IC50 was below 200 nM.

Regarding `CC(C)(C)N1CCN(Cc2ccc(CNc3cccc4c3C(=O)N(C3CCC(=O)NC3=O)C4=O)c(F)c2)CC1` (stereo not shown) [Cpd 95, 4-(4-((4-tert-butylpiperazin-1-yl)methyl)-2-fluorobenzylamino)-2-(2,6-dioxopiperidin-3-yl)isoindoline-1,3-dione], the IC50 is below 200 nM.

As to `O=C1CCC(N2C(=O)c3cccc(NCc4ccc(CN5CC6(CCC6)C5)cc4F)c3C2=O)C(=O)N1` (stereo not shown) [Cpd 137, 4-(4-(2-azaspiro[3.3]heptan-2-ylmethyl)-2-fluorobenzylamino)-2-(2,6-dioxopiperidin-3-yl)isoindoline-1,3-dione], the IC50 is below 200 nM.

Consider `O=C1CCC(N2C(=O)c3cccc(NCc4ccc(CN5CC6(CCOCC6)C5)cc4F)c3C2=O)C(=O)N1` (stereo not shown) [Cpd 221, 4-(4-(7-oxa-2-azaspiro[3.5]nonan-2-ylmethyl)-2-fluorobenzylamino)-2-(2,6-dioxopiperidin-3-yl)isoindoline-1,3-dione], for which the IC50 was below 200 nM.

Consider `NC(=O)c1ccc(N2CCN(Cc3ccc(CNc4cccc5c4C(=O)N([C@@H]4CCC(=O)NC4=O)C5=O)cc3)CC2)nc1` [Cpd 204, (R)-6-(4-(4-((2-(2,6-dioxopiperidin-3-yl)-1,3-dioxoisoindolin-4-ylamino)methyl)benzyl)piperazin-1-yl)nicotinamide], for which the IC50 was below 200 nM.

Take `O=C1CCC(N2C(=O)c3cccc(NCc4ccc(CN5CCC(OC6CCC6)CC5)cc4)c3C2=O)C(=O)N1` (stereo not shown) [Cpd 126]: the IC50 was in the range of 200 to 500 nM.

With `O=C1CCC(N2C(=O)c3cccc(NCc4ccc(CN5CC(N6CCCC6)C5)cc4F)c3C2=O)C(=O)N1` (stereo not shown) [Cpd 218, 2-(2,6-dioxopiperidin-3-yl)-4-(2-fluoro-4-((3-(pyrrolidin-1-yl)azetidin-1-yl)methyl)benzylamino)isoindoline-1,3-dione], the IC50 is below 200 nM.

As for `CC(C)(C)OC1CCN(Cc2ccc(CNc3cccc4c3C(=O)N(C3CCC(=O)NC3=O)C4=O)cc2F)CC1` (stereo not shown) [Cpd 146, 4-(4-((4-tert-butoxypiperidin-1-yl)methyl)-3-fluorobenzylamino)-2-(2,6-dioxopiperidin-3-yl)isoindoline-1,3-dione], the IC50 is below 200 nM.

Regarding `O=C1CC[C@@H](N2C(=O)c3cccc(NCc4ccc(CN5CC(N6CCOCC6)C5)cc4F)c3C2=O)C(=O)N1` [Cpd 209, (R)-2-(2,6-dioxopiperidin-3-yl)-4-(2-fluoro-4-((3-morpholinoazetidin-1-yl)methyl)benzylamino)isoindoline-1,3-dione], the IC50 is below 200 nM.

As to `O=C1CCC(N2C(=O)c3cccc(NCc4ccc(CN5C[C@@H]6CC(c7ccc(F)cc7)=C[C@@H]6C5)cc4)c3C2=O)C(=O)N1` (stereo in doubt) [Cpd 59, 2-(2,6-dioxopiperidin-3-yl)-4-(4-(((3aS,6aR)-5-(4-fluorophenyl)-3,3a,6,6a-tetrahydrocyclopenta[c]pyrrol-2(1H)-yl)methyl)benzylamino)isoindoline-1,3-dione], the IC50 was below 200 nM.

On to `CCC1(OC)CCN(Cc2ccc(CNc3cccc4c3C(=O)N(C3CCC(=O)NC3=O)C4=O)cc2)CC1` (stereo not shown) [Cpd 128, 2-(2,6-dioxopiperidin-3-yl)-4-(4-((4-ethyl-4-methoxypiperidin-1-yl)methyl)benzylamino)isoindoline-1,3-dione], for which the IC50 is 200 to 500 nM.

On to `Cc1cc(CNc2cccc3c2C(=O)N(C2CCC(=O)NC2=O)C3=O)ccc1CN1CCC2(CCC2)CC1` (stereo not shown) [Cpd 46, 4-(4-(7-azaspiro[3.5]nonan-7-ylmethyl)-3-methylbenzylamino)-2-(2,6-dioxopiperidin-3-yl)isoindoline-1,3-dione], for which the IC50 was below 200 nM.

Turning to `Cc1cc(CNc2cccc3c2C(=O)N(C2CCC(=O)NC2=O)C3=O)ccc1CN1CCC(C(=O)N(C)C)CC1` (stereo not shown) [Cpd 79, 1-(4-((2-(2,6-dioxopiperidin-3-yl)-1,3-dioxoisoindolin-4-ylamino)methyl)-2-methylbenzyl)-N,N-dimethylpiperidine-4-carboxamide], the IC50 was in the range of 200 to 500 nM.

In the case of `Cc1cc(CNc2cccc3c2C(=O)N(C2CCC(=O)NC2=O)C3=O)ccc1CN1CCN(C(C)C)CC1` (stereo not shown) [Cpd 69, 2-(2,6-dioxopiperidin-3-yl)-4-(4-((4-isopropylpiperazin-1-yl)methyl)-3-methylbenzylamino)isoindoline-1,3-dione], the IC50 is below 200 nM.

Consider `Cc1cc(CNc2cccc3c2C(=O)N(C2CCC(=O)NC2=O)C3=O)ccc1CN1CCN(c2ccc(C#N)cn2)CC1` (stereo not shown) [Cpd 63, 6-(4-(4-((2-(2,6-dioxopiperidin-3-yl)-1,3-dioxoisoindolin-4-ylamino)methyl)-2-methylbenzyl)piperazin-1-yl)nicotinonitrile], for which the IC50 was below 200 nM.

With `O=C1CCC(N2C(=O)c3cccc(NCc4ccc(CN5CCC6(CCCO6)CC5)cc4F)c3C2=O)C(=O)N1` (stereo not shown) [Cpd 144, 4-(4-(1-oxa-8-azaspiro[4.5]decan-8-ylmethyl)-2-fluorobenzylamino)-2-(2,6-dioxopiperidin-3-yl)isoindoline-1,3-dione], the IC50 is below 200 nM.
